# Measurements reported in patent US20150218534A1, “MODIFIED DNA POLYMERASE” (TOYOBO CO., LTD., priority 2012, published 2015).
# Assays:
# [1] = tested on: 0.7 kbp of human β-globin amplified in PCR with dUTP; test: Degradation with UNG of DNA amplified in the presence of dUTP; assay type: biochemical; conditions: for degradation with UNG of DNA amplified with the polymerase in the presence of dUTP: 37° C. for 10 minutes (FIG. 13)
# Method: It was confirmed whether 0.7 kbp of human β-globin amplified using KOD mutant with reduced uracil sensitivity (N210D/Y7A/P36H) in PCR with dUTP was degraded by being reacted with UNG. For PCR, components included in KOD-Plus-Ver. 2 (produced by Toyobo Co. Ltd.) were used. 50 μl of a reaction solution containing 1× PCR buffer, 1.5 mM MgSO4, dNTPs (dATP, dUTP, dCTP, dGTP) in an amount of 2 mM in which dTTP was replaced by dUTP, primers (SEQ ID NOs: 50 and 51) in an amount of 15 pmol, 10 ng of human genomic DNA (produced by Roche), and 1 U of the enzyme mixed with an antibody was used. PCR was performed using a GeneAmp PCR system 9700 (Applied Biosystems) on the following schedule: preliminary reaction at 94° C. for 2 minutes, followed by 35 cycles, each cycle consisting of 98° C. for 10 seconds, 60° C. for 30 seconds, and 68° C. for 1 minute. The amplification products were diluted with the above-mentioned 1× PCR buffer to 10 ng/μl, 8 μl of the diluted amplification products was mixed with 2 μl of various concentrations of UNG (produced by Roche), and the mixtures were reacted at 37° C. for 10 minutes. After the completion of each individual reaction, each of the mixtures was analyzed using a DNA-1000 kit for MultiNA (produced by Shimadzu Corporation) to confirm the amount of amplification products.
# [2] = tested on: bisulfite-treated human genomic DNA (MINT1, RAR, THBS1, MINT31); test: PCR amplification of bisulfite-treated DNA; assay type: biochemical; conditions: 40 cycles (FIG. 12)
# Method: Using bisulfite-treated DNA as a template and various primers, the difference in PCR amplification was compared. For comparison, KOD mutant (Y7A/V93K) and KOD (wild-type), each mixed with 1 μg of a KOD antibody per U of the enzyme, and Taq DNA polymerase mixed with an antibody (a mixture of equal amounts of Taq DNA polymerase (produced by Toyobo Co. Ltd.) and Anti-Taq High (produced by Toyobo Co. Ltd.)) were used.
# The bisulfite-treated DNA used was human genomic DNA (produced by Roche) that had been treated with a MethylCode Bisulfite Conversion Kit of Invitrogen.
# For PCR with the KOD mutant (Y7A/V93K) and PCR with the KOD, a buffer, MgSO4, and dNTPs included in KOD-Plus-Ver. 2 (produced by Toyobo Co. Ltd.) were used. 50 μl of individual reaction solutions containing 1× PCR buffer, 1.5 mM MgSO4, dNTPs (dATP, dTTP, dCTP, dGTP) in an amount of 0.2 mM, primers (SEQ ID NOs: 42 and 43 for amplification of MINT1; SEQ ID NOs: 44 and 45for amplification of RAR; SEQ ID NOs: 46 and 47 for amplification of THBS1; SEQ ID NOs: 48 and 49 for amplification of MINT31) in an amount of 15 pmol, 1 μl of bisulfite-treated DNA extract, and 1 U of each respective enzyme mixed with the antibody were used. PCR was performed using a GeneAmp PCR system 9700 (Applied Biosystems) on the following schedule: preliminary reaction at 94° C. for 2 minutes, followed by 40 cycles, each cycle consisting of 98° C. for 10 seconds, 55° C. for 15 seconds, and 68° C. for 1 minute.
# For PCR with the Taq DNA polymerase, 50 μl of a reaction solution containing 1× buffer included in Blend Taq (product of Toyobo), dNTPs (dATP, […], dCTP, dGTP) in an amount of 0.2 mM, primers in an amount of 15 pmol (the same as above), 1 μl of bisulfite-treated DNA extract, and 2.5 U of the enzyme mixed with the antibody was used. […]
# After the completion of each individual reaction, each of the resulting reaction solutions was analyzed using a DNA-1000 kit for MultiNA (produced by Shimadzu Corporation) to confirm amplified DNA fragments.
Substance,degradation with UNG of DNA amplified with the polymerase in the presence of dUTP [1],amplification of bisulfite-treated DNA [2],"amount of UNG that completely degraded the amplified DNA ([1]; 80 ng of DNA, 37° C. for 10 minutes) [U]"
KOD Y7A/V93K: modified KOD DNA polymerase with Y7A and V93K,the DNA was degraded with UNG,stable amplification was confirmed,
KOD N210D/Y7A/P36H: KOD N210D (exo(−)) mutant with Y7A and P36H,can be degraded by being reacted with UNG,,0.25
KOD Y7A/P36H: modified KOD DNA polymerase with Y7A and P36H,the DNA was degraded with UNG,,
